Experiments:
Magnaporthe grisea = assay: whole plant or invertebrate; format: in vivo; conditions: Blast on rice; control value class
Alternaia brassicicola = assay: Test Example C: Alternaria sooty spot on cabbage; format: in vivo; conditions: Alternaria sooty spot on cabbage; control value class
Description: Seeds of a test plant (cabbage variety: Shikidori) were planted and cultivated until the cotyledons extended.
<Control Value> Control value=100{1−(n/3)}

Puccinia recondita = assay: Test Example E: Brown rust on wheat; format: in vivo; conditions: Brown rust on wheat; control value class
Phytophthora infestans = assay: whole plant or invertebrate; format: in vivo; conditions: Late blight on tomato; control value class
Botrytis cinerea = assay: Test Example B: Gray mold on tomato; conditions: Gray mold on tomato; control value class
Description: Seeds of a test plant (tomato variety: Oogata Fukuju) were planted and cultivated until three to five first leaves (true leaves) appeared. In the test, the inventive compounds were dissolved into dimethyl sulfoxide-methanol mixture solution (volume ratio: 9/1), and the resultant solutions were diluted with well water to a concentration of 250 ppm to obtain the drug solutions. The drug solutions were sprayed to the test plant (2.5 ml/pot). After the drug solutions dried, a conidial suspension (4-8×10^5 conidia/ml) of Botrytis cinerea was inoculated to the plant by spraying. After the inoculation, the plant was kept in a mist chamber at room temperature of 20 to 23° C. for about 48 hours to promote the onset of disease. The degrees of disease development were investigated 2 to 3 days after the inoculation, and the effectiveness of the drug solutions was evaluated.
In Test Examples described above, the degrees of disease development were evaluated in increments of 0.05 from 0 (as no incidence of disease) to 3 (as the degree of disease development in an untreated plant group). Further, control values were calculated using the following equation based on the degree of disease development.
n=Degree of disease development in each treated group
In the table, H: more than 50% control value, L: 50% or less control value, and nt: not tested.

Plasmopara viticola = assay: Test Example G: Downy mildew on vine; conditions: Downy mildew on vine; 250 ppm spray, 7 to 10 days after inoculation
[1] = system: Colletotrichum orbiculare; assay: Test Example H: Anthracnose on cucumber; conditions: Anthracnose on cucumber; 250 ppm spray, 6 to 10 days after inoculation
[2] = system: Blumeria graminis f. sp. hordei; assay: Test Example D: Powdery mildew on barley; conditions: Powdery mildew on barley; control value class

CCn1c(-c2ccc(OC)cc2Cl)c(CC(C)C)ccc1=O [compound 238]
Test A control value (Magnaporthe grisea): H (more than 50% control value)
Test C control value (Alternaia brassicicola): H (more than 50% control value)
Test E control value (Puccinia recondita): H (more than 50% control value)
Test F control value (Phytophthora infestans): L (50% or less control value)
Test B control value (Botrytis cinerea): H (more than 50% control value)
Test G control value (Plasmopara viticola): H (more than 50% control value)
Test H control value [1]: H (more than 50% control value)
Test D control value [2]: H (more than 50% control value)

CCn1c(-c2ccc(OC)cc2Cl)c(CC(C)C)cc(Cl)c1=O [compound 239]
Test A control value (Magnaporthe grisea): H (more than 50% control value)
Test C control value (Alternaia brassicicola): H (more than 50% control value)
Test E control value (Puccinia recondita): H (more than 50% control value)
Test F control value (Phytophthora infestans): L (50% or less control value)
Test B control value (Botrytis cinerea): H (more than 50% control value)
Test G control value (Plasmopara viticola): L (50% or less control value)
Test H control value [1]: H (more than 50% control value)
Test D control value [2]: H (more than 50% control value)

CCn1c(-c2ccc(OC)cc2Cl)c(CC(C)C)cc(Br)c1=O [compound 240]
Test A control value (Magnaporthe grisea): H (more than 50% control value)
Test C control value (Alternaia brassicicola): H (more than 50% control value)
Test E control value (Puccinia recondita): H (more than 50% control value)
Test F control value (Phytophthora infestans): L (50% or less control value)
Test B control value (Botrytis cinerea): H (more than 50% control value)
Test G control value (Plasmopara viticola): H (more than 50% control value)
Test H control value [1]: H (more than 50% control value)
Test D control value [2]: H (more than 50% control value)

CCOC(C)(c1cc(Cl)c(=O)n(CC)c1-c1c(F)cc(OC)cc1F)C(C)C (stereo not shown) [compound 241]
Test A control value (Magnaporthe grisea): H (more than 50% control value)
Test C control value (Alternaia brassicicola): H (more than 50% control value)
Test E control value (Puccinia recondita): H (more than 50% control value)
Test F control value (Phytophthora infestans): L (50% or less control value)
Test B control value (Botrytis cinerea): H (more than 50% control value)
Test G control value (Plasmopara viticola): L (50% or less control value)
Test H control value [1]: H (more than 50% control value)
Test D control value [2]: H (more than 50% control value)

CCCOC(C)(c1cc(Cl)c(=O)n(CC)c1-c1c(F)cc(OC)cc1F)C(C)C (stereo not shown) [compound 242]
Test A control value (Magnaporthe grisea): L (50% or less control value)
Test C control value (Alternaia brassicicola): H (more than 50% control value)
Test E control value (Puccinia recondita): L (50% or less control value)
Test F control value (Phytophthora infestans): L (50% or less control value)
Test B control value (Botrytis cinerea): L (50% or less control value)
Test G control value (Plasmopara viticola): L (50% or less control value)
Test H control value [1]: L (50% or less control value)
Test D control value [2]: L (50% or less control value)

C=C(c1cc(Cl)c(=O)n(CC)c1-c1c(F)cc(F)cc1F)C(C)C [compound 243]
Test A control value (Magnaporthe grisea): H (more than 50% control value)
Test C control value (Alternaia brassicicola): H (more than 50% control value)
Test E control value (Puccinia recondita): H (more than 50% control value)
Test F control value (Phytophthora infestans): L (50% or less control value)
Test B control value (Botrytis cinerea): H (more than 50% control value)
Test G control value (Plasmopara viticola): L (50% or less control value)
Test H control value [1]: H (more than 50% control value)
Test D control value [2]: H (more than 50% control value)

CCn1c(-c2c(F)cc(F)cc2F)c(C(C)(O)C2CCCC2)cc(Cl)c1=O (stereo not shown) [compound 244]
Test A control value (Magnaporthe grisea): H (more than 50% control value)
Test C control value (Alternaia brassicicola): H (more than 50% control value)
Test E control value (Puccinia recondita): H (more than 50% control value)
Test F control value (Phytophthora infestans): L (50% or less control value)
Test B control value (Botrytis cinerea): H (more than 50% control value)
Test G control value (Plasmopara viticola): L (50% or less control value)
Test H control value [1]: H (more than 50% control value)
Test D control value [2]: H (more than 50% control value)

CCn1c(-c2c(F)cc(F)cc2F)c(C(C)(OC)C2CCCC2)cc(Cl)c1=O (stereo not shown) [compound 245]
Test A control value (Magnaporthe grisea): L (50% or less control value)
Test C control value (Alternaia brassicicola): H (more than 50% control value)
Test E control value (Puccinia recondita): L (50% or less control value)
Test F control value (Phytophthora infestans): L (50% or less control value)
Test B control value (Botrytis cinerea): L (50% or less control value)
Test G control value (Plasmopara viticola): L (50% or less control value)
Test H control value [1]: L (50% or less control value)
Test D control value [2]: L (50% or less control value)

CCn1c(-c2ccc(OC)cc2)c(C(O)C(C)C)cc(Cl)c1=O (stereo not shown) [compound 246]
Test A control value (Magnaporthe grisea): L (50% or less control value)
Test C control value (Alternaia brassicicola): H (more than 50% control value)
Test E control value (Puccinia recondita): H (more than 50% control value)
Test F control value (Phytophthora infestans): L (50% or less control value)
Test B control value (Botrytis cinerea): L (50% or less control value)
Test G control value (Plasmopara viticola): L (50% or less control value)
Test H control value [1]: L (50% or less control value)
Test D control value [2]: L (50% or less control value)

CCOC(C)(c1cc(Cl)c(=O)n(CC)c1-c1ccc(OC)cc1)C(C)C (stereo not shown) [compound 247]
Test A control value (Magnaporthe grisea): L (50% or less control value)
Test C control value (Alternaia brassicicola): L (50% or less control value)
Test E control value (Puccinia recondita): L (50% or less control value)
Test F control value (Phytophthora infestans): L (50% or less control value)
Test B control value (Botrytis cinerea): H (more than 50% control value)
Test G control value (Plasmopara viticola): L (50% or less control value)
Test H control value [1]: L (50% or less control value)
Test D control value [2]: H (more than 50% control value)

CCCOC(C)(c1cc(Cl)c(=O)n(CC)c1-c1ccc(OC)cc1)C(C)C (stereo not shown) [compound 248]
Test A control value (Magnaporthe grisea): H (more than 50% control value)
Test C control value (Alternaia brassicicola): L (50% or less control value)
Test E control value (Puccinia recondita): L (50% or less control value)
Test F control value (Phytophthora infestans): L (50% or less control value)
Test B control value (Botrytis cinerea): L (50% or less control value)
Test G control value (Plasmopara viticola): L (50% or less control value)
Test H control value [1]: L (50% or less control value)
Test D control value [2]: L (50% or less control value)

CCn1c(-c2ccc(OC)cc2)c(C(C)(F)C(C)C)cc(Cl)c1=O (stereo not shown) [compound 249]
Test A control value (Magnaporthe grisea): L (50% or less control value)
Test C control value (Alternaia brassicicola): H (more than 50% control value)
Test E control value (Puccinia recondita): H (more than 50% control value)
Test F control value (Phytophthora infestans): L (50% or less control value)
Test B control value (Botrytis cinerea): H (more than 50% control value)
Test G control value (Plasmopara viticola): L (50% or less control value)
Test H control value [1]: H (more than 50% control value)
Test D control value [2]: L (50% or less control value)

CCn1c(-c2ccc(C#N)cc2)c(C(C)(OC)C(C)C)cc(Cl)c1=O (stereo not shown) [compound 250]
Test A control value (Magnaporthe grisea): L (50% or less control value)
Test C control value (Alternaia brassicicola): L (50% or less control value)
Test E control value (Puccinia recondita): H (more than 50% control value)
Test F control value (Phytophthora infestans): L (50% or less control value)
Test B control value (Botrytis cinerea): H (more than 50% control value)
Test G control value (Plasmopara viticola): L (50% or less control value)
Test H control value [1]: L (50% or less control value)
Test D control value [2]: L (50% or less control value)

CCOC(C)(c1cc(Cl)c(=O)n(CC)c1-c1ccc(C#N)cc1)C(C)C (stereo not shown) [compound 251]
Test A control value (Magnaporthe grisea): L (50% or less control value)
Test C control value (Alternaia brassicicola): H (more than 50% control value)
Test E control value (Puccinia recondita): L (50% or less control value)
Test F control value (Phytophthora infestans): L (50% or less control value)
Test B control value (Botrytis cinerea): L (50% or less control value)
Test G control value (Plasmopara viticola): L (50% or less control value)
Test H control value [1]: L (50% or less control value)
Test D control value [2]: L (50% or less control value)

From patent US11147272B2, “Pyridone compounds and agricultural and horticultural fungicides comprising the same as active ingredients” (MITSUI CHEMICALS AGRO, INC., priority 2017, dated 2021)
